Assay results as given in ChEMBL document CHEMBL3526010, “Pharmacokinetics, biotransformation, and mass balance of edoxaban, a selective, direct factor Xa inhibitor, in humans” (Drug Metab Dispos, 2012).

Experiments:
[1] = AUC (0 to t) in human plasma at 60 mg, po by LC-MS/MS analysis; assay type: ADME, organism-based
[2] = Drug metabolism in human assessed as metabolite excretion in feces at 60 mg, po after 168 hrs by radio-HPLC chromatogram analysis; assay type: ADME, organism-based; conditions: in vivo
Plasma [3] = experiment: AUC (0 to infinity) in human plasma at 60 mg, po by radio-HPLC chromatogram analysis; assay type: ADME, organism-based; set-up: dose 60 mg, time infinity, route oral; conditions: in vivo
[4] = Retention time of the compound; assay type: physicochemical
[5] = Tmax in human plasma at 60 mg, po by LC-MS/MS analysis; assay type: ADME, organism-based
[6] = Cmax in human plasma at 60 mg, po by LC-MS/MS analysis; assay type: ADME, organism-based; set-up: dose 60 mg, route oral
[7] = Terminal elimination half life in human plasma at 60 mg, po by LC-MS/MS analysis; assay type: ADME, organism-based; conditions: read-out: beta t1/2 (converted)
clinical = conditions: human, in vivo
Blood [8] = experiment: Cmax in human whole blood at 60 mg, po by radio-HPLC chromatogram analysis; assay type: ADME, organism-based; set-up: dose 60 mg, route oral; conditions: in vivo
Blood [9] = experiment: AUC (0 to infinity) in human whole blood at 60 mg, po by radio-HPLC chromatogram analysis; assay type: ADME, organism-based; set-up: dose 60 mg, time infinity, route oral; conditions: in vivo
[10] = AUC (0 to infinity) in human plasma at 60 mg, po by LC-MS/MS analysis; assay type: ADME, organism-based; set-up: dose 60 mg, route oral, time infinity
[11] = Elimination half life in human; assay type: ADME, organism-based; conditions: in vivo, read-out: beta t1/2 (converted)
Plasma [12] = experiment: Cmax in human plasma at 60 mg, po by radio-HPLC chromatogram analysis; assay type: ADME, organism-based; set-up: dose 60 mg, route oral; conditions: in vivo
Blood [13] = experiment: AUC (0 to t) in human whole blood at 60 mg, po by radio-HPLC chromatogram analysis; assay type: ADME, organism-based; conditions: in vivo
Plasma [14] = experiment: AUC (0 to t) in human plasma at 60 mg, po by radio-HPLC chromatogram analysis; assay type: ADME, organism-based; conditions: in vivo
Homo sapiens = experiment: Toxicity in human assessed as sign of adverse effect at 60 mg, po; assay type: organism-based; conditions: in vivo
Plasma [15] = experiment: Cmax in human plasma treated with 60 mg, po of [14C]edoxaban by LC-MS/MS analysis; assay type: ADME, organism-based; set-up: dose 60 mg, route oral; conditions: in vivo
Plasma [16] = experiment: AUC (0 to t) in human plasma treated with 60 mg, po of [14C]edoxaban by LC-MS/MS analysis; assay type: ADME, organism-based; conditions: in vivo
[17] = Drug excretion in feces of human treated with 60 mg, po of [14C]edoxaban after 168 hrs by radio-HPLC chromatogram analysis; assay type: ADME, organism-based; conditions: in vivo
Plasma [18] = experiment: AUC (0 to infinity) in human plasma treated with 60 mg, po of [14C]edoxaban by LC-MS/MS analysis; assay type: ADME, organism-based; set-up: dose 60 mg, time infinity, route oral; conditions: in vivo
[19] = Drug excretion in urine of human treated with 60 mg, po of [14C]edoxaban after 168 hrs by radio-HPLC chromatogram analysis; assay type: ADME, organism-based; conditions: in vivo
Plasma [20] = experiment: Tmax in human plasma treated with 60 mg, po of [14C]edoxaban by LC-MS/MS analysis; assay type: ADME, organism-based; conditions: in vivo
Plasma [21] = experiment: Terminal elimination half life in human plasma treated with 60 mg, po of [14C]edoxaban by LC-MS/MS analysis; assay type: ADME, organism-based

| Retention_time [4] [min] | Cmax (Plasma [15]) [ng/mL] | AUCt (Plasma [16]) [ng·h/mL] | AUC (Plasma [18]) [ng·h/mL] | Drug excretion [19] [%] | Tmax (Plasma [20]) [h] | beta t1/2 (Plasma [21]) [h] | Drug excretion [17] [%] | SMILES | further results |
| --- | --- | --- | --- | --- | --- | --- | --- | --- | --- |
| 41.45 |  |  |  |  |  |  |  | CN(C)C(=O)[C@H]1CC[C@H](NC(=O)C(=O)Nc2ccc(Cl)cn2)[C@H](NC(=O)c2nc3c(s2)C[N+](C)([O-])CC3)C1 (stereo partly specified) |  |
| 25.41 | 14.9 | 94.7 | 95.8 | 1.85 | 1.8 | 6.9 |  | CN1CCc2nc(C(=O)N[C@@H]3C[C@@H](C(=O)N(C)C)CC[C@@H]3NC(=O)C(=O)O)sc2C1 | Drug excretion ([17]; BLD = below limit of detection): BLD |
| 38.9 |  |  |  |  |  |  |  | CN(C)C(=O)[C@H]1CC[C@H](NC(=O)C(=O)Nc2ccc(Cl)cn2)[C@H](NC(=O)c2nc3c(s2)C[N+](C)([C@@H]2O[C@H](C(=O)[O-])[C@@H](O)[C@H](O)[C@H]2O)CC3)C1 (stereo partly specified) |  |
| 40.84 | 22.2 | 145.5 | 147 | 1.56 | 1.8 | 8.2 | 1.93 | CN1CCc2nc(C(=O)N[C@@H]3C[C@@H](C(=O)O)CC[C@@H]3NC(=O)C(=O)Nc3ccc(Cl)cn3)sc2C1 |  |
| 46.52 | 6.99 | 55.1 | 56.2 | 0.45 | 1 | 9 | 1.66 | CN(C)C(=O)[C@H]1CC[C@H](NC(=O)C(=O)Nc2ccc(Cl)cn2)[C@H](NC(=O)c2nc3c(s2)CNCC3)C1 |  |
| 34.09 |  |  |  |  |  |  |  | CN1CCc2nc(C(=O)N[C@@H]3C[C@@H](C(=O)N(C)C)CC[C@@H]3N)sc2C1 (stereo in doubt; M2) |  |
| 49.97 | 0.63 | 3.5 | 4.41 |  | 1.8 | 9 | 0.34 | CNC(=O)[C@H]1CC[C@H](NC(=O)C(=O)Nc2ccc(Cl)cn2)[C@H](NC(=O)c2nc3c(s2)CN(C)CC3)C1 (stereo in doubt; M8) | Drug excretion ([19]; BLD = below limit of detection): BLD |

| SMILES | Retention_time [4] [min] | Cmax (Plasma [15]) [ng/mL] | AUCt (Plasma [16]) [ng·h/mL] | AUC (Plasma [18]) [ng·h/mL] | Drug excretion [19] [%] | Tmax (Plasma [20]) [h] | beta t1/2 (Plasma [21]) [h] | Drug excretion [17] [%] | further results |
| --- | --- | --- | --- | --- | --- | --- | --- | --- | --- |
| CN1CCc2nc([14C](=O)N[C@@H]3C[C@@H](C(=O)N(C)C)CC[C@@H]3NC(=O)C(=O)Nc3ccc(Cl)cn3)sc2C1 | 54.08 |  |  |  |  |  |  |  | AUC(0-t) [1]: 1580 ng·h/mL; Drug excretion [2]: 0.05%; AUC (Plasma [3]): 1.947 ugequiv.h/ml; Tmax [5]: 0.5 h; Cmax [6]: 332 ng/mL; half-life [7]: 7.4 h; Tmax (clinical): 1 h; Cmax (Blood [8]): 0.352 ugequiv/ml; AUC (Blood [9]): 1.673 ugequiv.h/ml; AUC(0-inf) [10]: 1600 ng·h/mL; half-life [11]: 8 h; Cmax (Plasma [12]): 0.349 ugequiv/ml; AUCt (Blood [13]): 1.269 ugequiv.h/ml; AUCt (Plasma [14]): 1.683 ugequiv.h/ml; Activity (Homo sapiens): Non-toxic |
